# Experimental data as given in publication PMC10107299, “Neutralizing the Impact of the Virulence Factor LecA from Pseudomonas aeruginosa on Human Cells with New Glycomimetic Inhibitors” (Angewandte Chemie (International Ed. in English), 2023).
# Where two headings read alike, the source gives them in different places.
# What was measured:
# [1] = Kinetic solubility in TBS/Ca2+ buffer (HPLC-MS); type: physicochemical; details: aqueous buffer, kinetic from dmso stock; TBS/Ca2+ buffer pH 7.4, 1 % DMSO, N≥3; read-out: Solubility S (kinetic)
# Procedure: Next, we quantified the solubility of at least one representative of each new class and of one parent bisacylhydrazone in aqueous media (Table 1). […]
# TBS/Ca2+ buffer (20 mM Tris, 137 mM NaCl, 2.6 mM KCl at pH 7.4 supplemented with 1 mM […]
# CaCl2) in presence of 25% DMSO. […]
# Kinetic solubility was determined on the analytical HPLC-MS using Compass QuantAnalysis quantification software (Bruker). Samples were prepared from DMSO stock solutions by dilution with TBS/Ca2+ buffer to 100 µM with 1% DMSO present. Samples were incubated on a shaker for 1 h at r.t., centrifuged (21380 g, 20 min), supernatants were diluted with DMSO (1:3), analyzed by HPLC-MS and fitted to the individual calibration curves.
# Every experiment was repeated independently at least three times. […]
# [2] = In vitro metabolic stability, mouse liver microsomes; type: in vitro ADME; details: N=3, read-out: CLint MLM
# Procedure: (§1) Acetonitrile and caffeine were dispensed using a Mantis Formulatrix. Then samples were centrifuged for 20 min at 2.270 x g at 4 °C and the supernatants were transferred to 96-well Greiner V-bottom plates. Peak areas of each compound and of the internal standard were analyzed using the MultiQuant 3.0 software (AB Sciex). Peak areas of the respective compound were normalized to the internal standard peak area and to the respective peak areas at time point 0 min: (C/D)/(A/B) with A: peak area of the compound at time point 0 min, B: peak area of the internal standard at time point 0 min, C: peak area of the compound at the respective time point, D: peak area of the internal standard at the respective time point.
# (§2) In vitro metabolic stability assay
# (§3) Liver microsomes (mouse and human, Thermo Fisher) were thawed slowly on ice. 20 mg/mL of microsomes, 2 µL of a 100 µM solution of every compound and 183 µL of 100 mM phosphate buffer were incubated 5 min at 37 °C in a water bath. Reactions were initiated using 10 µL of 20 mM NADPH (CarlRoth). Samples were incubated in three replicates at 37 °C under gentle agitation at 150 rpm. At 0, 5, 15, 30, and 60 min, reactions were terminated by the addition of 180 µL acetonitrile using a Mantis Formulatrix dispenser. Samples were vortexed for 5 min using an Eppendorf MixMate vortex mixer and centrifuged at 2.270 x g for 20 min at 4 °C. The supernatants were transferred to 96-well Greiner V-bottom plates, sealed and analyzed according to the section HPLC-MS analysis. Peak areas of the respective time point of the compounds were normalized to the peak area at time point 0 min. Then half-life was calculated using linear regression (Microsoft Excel). Clint [µL/min/mg protein] was calculated using the following formula: […]
# [3] = In vitro metabolic stability, human liver microsomes; type: in vitro ADME; details: N=3, read-out: CLint HLM
# Procedure: We then determined the in vitro metabolic stability in plasma and liver microsomes as well as plasma protein binding for a selected subset of the synthesized LecA inhibitors, i.e. D1, D2, H1, H2 and L2 and compared them to the parent bisacylhydrazone 14 (Table 2). […] The metabolic stability of the compounds differed in presence of human liver microsomes (HLM). Introduction of a pyridine ring decreased stability (H1 CLint=28.6 μL min^−1/mg protein, H2 CLint=32.5 μL min^−1/mg protein) compared to the benzene analogues (D1 CLint=21.9 μL min^−1/mg protein, D2 CLint=21.0 μL min^−1/mg protein) and to the parent acylhydrazone 14 (CLint=19.6 μL min^−1/mg protein). […]
# as §1, with “mixer (Eppendorf). Acetonitrile” for “Acetonitrile”
# as §2, §3
# in vitro = in vitro ADME; details: pH 7.4, 37 °C
# Procedure: Then, we analyzed the stability of the compounds in plasma. […] The observed increase in plasma stability of the tested amide derivatives compared to bisacylhydrazone 14 supports our design hypothesis for the isosteric replacement of the bisacylhydrazone linking motif. […]
# Each compound dissolved in DMSO was added to mouse plasma (pH 7.4, 37 °C) or to human plasma (pH 7.4, 37 °C) to yield a final concentration of 1 µM. In addition, procaine and procainamide (dissolved in DMSO) were added to mouse plasma or to human plasma (pH 7.4, 37 °C) to yield a final concentration of 1 µM. Procaine served as positive control as it is unstable in mouse plasma. Procainamide served as negative control as it is stable in mouse plasma. The samples were incubated for 0 min, 15 min, 30 min, 60 min, 90 min, 120 min and 240 min at 37 °C. At each time point, 10 µl of the respective sample was extracted with 90 µL acetonitrile containing 12.5 ng/mL caffeine as internal standard for 5 min at 2000 rpm on a MixMate vortex […]
# as §1, with “mixer (Eppendorf). Acetonitrile” for “Acetonitrile”, “point. […]” for “point.”
# 2 hours at 800 rpm on an Eppendorf MixMate vortex-mixer. Then samples were withdrawn from the respective chambers. To 25 µL of each dialysis sample, 25 µL of plasma and to 25 µL of plasma sample, 25 µL of dialysis buffer was added. Then 150 µL ice-cold extraction solvent (ACN/H2O (90:10) containing 12.5 ng/mL caffeine as internal standard) was added. Samples were incubated for 30 min on ice. Then samples were centrifuged at 4 °C at 2270 x g for 10 min.
# P. aeruginosa PAO1 = assay: Invasion assay of P. aeruginosa PAO1 into H1299 cells; type: cell-based, Pseudomonas aeruginosa; details: PAO1 into H1299 cells, N≥4
# Procedure: P. aeruginosa is able to invade non‐phagocytic cells via a lipid zipper mechanism.[10] Binding of LecA to the glycosphingolipid Gb3 followed by LecA‐induced receptor clustering plays a crucial role in this process. The LecA ligand 4‐nitrophenyl α‐ D‐galactopyranoside (PNPG) has been previously shown to interfere with these events at a high concentration of 10 mM leading to a reduction of bacterial invasiveness to 30–60 % as compared to untreated bacteria (100 % invasiveness).[10, 31] For invasion assays, H1299 cells were incubated with P. aeruginosa in presence and absence of LecA inhibitors, followed by killing of extracellular bacteria with the antibiotic amikacin. Then, all intracellular bacteria were released by lysis of the human cells and viable bacteria were quantified by plating. To assess the impact of LecA inhibitors on the invasiveness, the influence of the divalent LecA inhibitor L2 on bacterial invasion into host cells was evaluated and compared to PNPG. […] In contrast, the divalent LecA ligand L2 achieved an invasion decrease to 44 % already at 100 μM (Figure 5c). L2 was thus able to reach a similar reduction of invasion at a 100‐fold lower concentration than the one needed for PNPG. […]
# lectin-inhibitor solution for 24 h at 37 °C. In order to depict exactly the same position for each wound, marker lines were drawn on the bottom of the 12-well plates for each well. The samples were imaged with an EVOS microscope (PEQLAB by VWR Life Sciences, Avantor […]
# Excel. […]
# A chromosomally GFP-tagged Gentamicin-resistant Pseudomonas aeruginosa PAO1 strain was cultured (LB medium supplemented with 60 µg/mL Gentamicin, 37 °C, 180 rpm, 16 h) and invasion assays were performed in analogy to Eierhoff et al..[13] 1.5 x 10^4 H1299 cells per well were seeded one day prior to the invasion assay in a 96-well plate with flat bottom. An […]
# overnight culture of P. aeruginosa was centrifuged for 5 min at 3000 x g, washed with PBS (- /-) and re-suspended in RPMI 1640 medium. The newly synthesized divalent LecA ligand L2 was compared to 4-nitrophenyl α-D-galactopyranoside (PNPG; Sigma-Aldrich, Chemie GmbH, Darmstadt, Germany). […]
# Subsequently, cells were washed three times with DPBS and lysed by incubation with 0.25% (v/v) Triton X-100 (Carl Roth GmbH & Co. KG, Karlsruhe, Germany) for 5 min at 37 °C and 180 rpm. […] Bacterial colonies were counted the next day. […] The invasion rate was calculated as the number of intracellularly localized bacteria divided by the total number of non-treated bacteria, bacteria that were not treated with any ligands and neither amikacin, thus the number of P. aeruginosa that successfully invaded or stayed attached to the host cells. Experiments were repeated independently at least four times (N ≥ 4) and evaluated […]
# P. aeruginosa = system: P. aeruginosa; set-up: method as in PMID 25136128, PMID 25044671; details: 10 mM; cited from earlier work
SMILES,solubility kinetic at 1 h [1],microsomal CLint at 1 µM [2],microsomal CLint at 1 µM [3],"half-life at 1 µM (in vitro; human plasma, read-out: Plasma stability t1/2 Human)","half-life at 1 µM (in vitro; mouse plasma, read-out: Plasma stability t1/2 Mouse)",Bacterial invasiveness (untreated bacteria 100 %) (P. aeruginosa PAO1; 100 μM inhibitor),Bacterial invasiveness (untreated bacteria 100 %) (P. aeruginosa PAO1; 10 mM inhibitor),Bacterial invasiveness (untreated bacteria 100 %) (P. aeruginosa)
"O=C(N/N=C/c1ccc(OCCOc2ccc(/C=N/NC(=O)c3ccc(O[C@@H]4O[C@H](CO)[C@H](O)[C@H](O)[C@H]4O)cc3)cc2)cc1)c1ccc(O[C@@H]2O[C@H](CO)[C@H](O)[C@H](O)[C@H]2O)cc1 [Compound 14, reference compound]",1.6 ± 0.4 µM,< 23 µL/min/mg,19.6 µL/min/mg,2.06 h,0.815 h,,,
"O=[N+]([O-])c1ccc(O[C@H]2O[C@H](CO)[C@H](O)[C@H](O)[C@H]2O)cc1 [PNPG, 4-nitrophenyl α-D-galactopyranoside, reference compound]",,,,,,89%,44%,30–60%
